Results on 11 molecules are retold here after patent publication US20260337162A1, “TRYPTAMINE COMPOUNDS, COMPOSITIONS, AND METHODS OF USE” (priority 2022, published 2026).

Molecules are shown by their SMILES. Entries after “also recorded” stand apart in the source; their conditions may differ. Where two headings read alike, the source gives them in different places.

The subject of series [1] is 5-HT2A receptor. In words: Head-twitch response (HTR) and behavioral observation in mice. In kind it is in vivo, adult, male C57BL/6J mice. The conditions noted are these: 10 mg/kg PO; for HTR (per min): 30 min counting; for elicitation of HTR (in words) / qualitative behavioral changes: mice. The protocol:
The HTR assay was performed in adult, male C57BL/6J mice, procured from the Jackson Laboratory (Bar Harbor, Maine), as previously described (Canal, C. E., and Morgan, D., 2012, Head-twitch response in rodents induced by the hallucinogen 2,5-dimethoxy-4-iodoamphetamine: a comprehensive history, a re-evaluation of mechanisms, and its utility as a model, Drug Test Anal 4, 556-576; Saraf, T. S., Felsing, D. E., Armstrong, J. L., Booth, R. G., and Canal, C. E., 2021, Evaluation of lorcaserin as an anticonvulsant in juvenile Fmr1 knockout mice, Epilepsy Res 175, 106677). Mice were housed in standard laboratory cages with ad libitum access to food and water, and were acclimated to the vivarium for at least one week prior to testing in a procedure room. On the day of testing, mice were acclimated to the procedure room in their home cages for ≥60 min before administration of test compounds. Test articles were administered at 10 mg/kg by oral gavage and mice were placed immediately thereafter in a clear, polycarbonate box (46×20×20 cm), and HTRs were counted for 30 consecutive minutes, using hand-held tally counters, by two trained observers who were blind to treatment.

A short description of series [2]: in vivo. The series is classed as in vivo, adult, male C57BL/6J mice. Particulars: 10 mg/kg PO; for concentration at 10 min / concentration at 0.5 h / concentration at 2 h: mouse, in vivo, po, 10 mg/kg; for concentration at 0.5 h: 30 min; for concentration at 2 h: 120 min. The procedure: PK profiles were established in adult, male C57BL/6J (Jackson Laboratories). Mice were housed in standard laboratory cages with ad libitum access to food and water, and were acclimated to the vivarium for at least one week prior to testing in a procedure room. In a typical experiment, mice were administered 10 mg/kg of test compound by oral gavage and plasma and brain samples were collected at 10, 30, and 120 min with n-3 for each time point. Quantification of the parent molecule was done using LC-MS/MS method (LLOQ, 0.9 nM).

Series [3] concerns the target T1, human serotonin 5-HT2A receptor (Homo sapiens, UniProt P28223).
T1 construct: host or cells: HEK293 (ATCC CRL-1573)
The series is described as follows: Radioligand ([3H]LSD) competition binding, 5-HT2A receptor. Particulars: for 5-HT2A receptor affinity (in words) / competition binding curve shape / Ki: [3H]LSD; for competition binding curve shape / competition for [3H]LSD-labeled 5-HT2A receptors: in words; for Ki: one-site fit Ki model; for competition for [3H]LSD-labeled 5-HT2A receptors: up to 10 μM for partial competition. The procedure: Binding affinity (Ki) and functional potency and efficacy (EC50 and EMAX) values of the compounds were measured.
Radioligand competition binding was performed as previously described (Saraf, T. S., Felsing, D. E., Armstrong, J. L., Booth, R. G., and Canal, C. E., 2021, Evaluation of lorcaserin as an anticonvulsant in juvenile Fmr1 knockout mice, Epilepsy Res 175, 106677), with minor modifications, using human cloned 5-HT2A receptors. Plasmids encoding human serotonin 5-HT2A receptor cDNA were procured from the cDNA Resource Center. Human embryonic kidney cells (HEK293, ATCC CRL-1573) were grown in a cell incubator in 100 mm dishes with antibiotic-free Dulbecco's modified Eagle's medium containing 10% fetal bovine serum. Cells were transfected at ~85% confluency with 5-15 μg cDNA using TransIT-2020 reagent (Mirus Bio, Madison, Wisconsin). After approximately 48 hours, cell membrane was collected via centrifugation. For all experiments, serotonin (5-HT) hydrochloride was used as a positive control, and mianserin hydrochloride (10 μM) was used to define non-specific binding. Each cell membrane homogenate expressing 5-HT2A receptors was incubated at room temperature in 96-well plates with [^3H] […] Following equilibration, each sample was filtered rapidly under vacuum through fiberglass filters presoaked in a buffer and washed by vacuum several times with an ice-cold buffer. Filters were soaked with scintillation fluid and counts per minute were detected using photodetectors (Microbeta Scintillation Counter). […] Data shown are the results from all experiments combined. As is known, G protein-coupled receptors, including the 5-HT2A receptor, can exist in multiple conformations, and ligands, typically agonist ligands, have unique affinities for these conformations of the receptor (Kenakin, T. Theoretical Aspects of GPCR-Ligand Complex Pharmacology, Chem. Rev. 2017, 117, 1, 4-20). […] However, for simplicity reasons, affinity of these compounds are reported herein as fitted to the single-site model. The data point for −10 samples is total specific binding (no compound present), and −4 was interpolated to complete the binding curves to 0 specific binding.

Series [4] deals with T2, 5-HT2A receptor (Homo sapiens, UniProt P28223).
T2 construct: expressed in transfected cells
The series is described as follows: 5-HT2A receptor functional screening assay (efficacy relative to maximal 5-HT response). The series is classed as cell-based. The conditions noted are these: for activation at 0.5 µM: 500 nM. The procedure:
(§1) 5-HT2 receptor-mediated Gq stimulation [phosphoinositide hydrolysis leading to the production of inositol phosphate 1 (IP1)]-canonical signaling pathways-were measured as previously described (Canal, C. E., Cordova-Sintjago, T., Liu, Y., Kim, M. S., Morgan, D., and Booth, R. G., 2013, Molecular pharmacology and ligand docking studies reveal a single amino acid difference between mouse and human serotonin 5-HT2A receptors that impacts behavioral translation of novel 4-phenyl-2-dimethylaminotetralin ligands, J Pharmacol Exp Ther 347, 705-716; Canal, C. E., Morgan, D., Felsing, D., Kondabolu, K., Rowland, N. E., Robertson, K. L., Sakhuja, R., and Booth, R. G., 2014, A Novel Aminotetralin-Type Serotonin (5-HT)(2C) Receptor —Specific Agonist and 5-HT2A Competitive Antagonist/5-HT2B Inverse Agonist with Preclinical Efficacy for Psychoses, J Pharm Exp Ther 349, 533), for example, with a homogeneous time-resolved fluorescence (HTRF) capable microplate reader (e.g., Mithras LB 940, Berthold) using commercially-available kits employing Fluorescence Resonance Energy Transfer (FRET) technology (e.g., IP-One HTRF (Cisbio) kits). Briefly, CHO-K1 or HEK293 cells expressing a single serotonergic 5-HT2 receptor subtype were incubated with test compounds and 5-HT or DOI (positive control) in stimulation buffer containing LiCl. After equilibration, the reaction was terminated with the donor and acceptor fluorescent conjugates in lysis buffer, and FRET was measured with a microplate reader (Berthold Mithras). Data were fit to non-linear curves to calculate potencies (e.g., EC50) and efficacies (e.g., EMAX), relative to positive controls (e.g., serotonin).

For series [5] the following is noted: cited from earlier work.
Series [6] concerns the target T2, 5-HT2A receptor. The series is described as follows: Dose-response 5-HT2A functional assay (IP1 formation). In kind it is cell-based. The protocol: FIG. 27 is a graph showing the dose-response 5-HT2A functional assay results as a percent of control agonist response for compound II-2; tested in duplicate at the indicated concentrations and the EC50 values were determined by non-linear regression analysis of the concentration-response curves generated with mean replicate values using Hill equation curve fitting;
FIG. 28 is a graph showing the dose-response 5-HT2A functional assay results as a percent of control agonist response for compounds III-2 and IV-21; tested in duplicate at the indicated concentrations and the EC50 values were determined by non-linear regression analysis of the concentration-response curves generated with mean replicate values using Hill equation curve fitting; and
as §1
The results from tests of 5-HT2A functional activities of this series of compounds were also unexpected in the context of the unusual results observed from competition binding assays. […] Complete dose-response 5-HT2A and 5HT2B functional assays (measuring IP1 formation) were conducted for III-2 and IV-21 by a second, independent laboratory.

Where [7] appears, read: brain, read-out: PK data, Brain, 10 min.
The mark [8] stands for this setting: brain, read-out: PK data, Brain, 30 min.
[9] abbreviates: brain, read-out: PK data, Brain, 120 min.
Where [10] appears, read: plasma, read-out: PK data, Plasma, 10 min.
The mark [11] stands for this setting: plasma, read-out: PK data, Plasma, 30 min.
Setting [12] is: plasma, read-out: PK data, Plasma, 120 min.

T1 sequence (P28223 whole entry): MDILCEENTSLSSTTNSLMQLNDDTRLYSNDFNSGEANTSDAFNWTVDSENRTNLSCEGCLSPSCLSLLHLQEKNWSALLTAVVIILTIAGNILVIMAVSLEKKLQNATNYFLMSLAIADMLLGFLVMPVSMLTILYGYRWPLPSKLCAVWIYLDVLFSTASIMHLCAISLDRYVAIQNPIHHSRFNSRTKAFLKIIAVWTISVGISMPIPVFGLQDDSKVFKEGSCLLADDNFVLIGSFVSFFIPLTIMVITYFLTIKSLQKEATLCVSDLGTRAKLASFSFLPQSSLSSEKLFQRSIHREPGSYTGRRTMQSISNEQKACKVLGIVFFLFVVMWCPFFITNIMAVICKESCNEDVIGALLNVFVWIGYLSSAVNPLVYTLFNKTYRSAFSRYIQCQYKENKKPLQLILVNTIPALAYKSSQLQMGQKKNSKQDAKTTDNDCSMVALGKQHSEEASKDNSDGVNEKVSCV
T2 sequence (P28223 whole entry): as above

The term Ki denotes the dissociation constant of the complex between target and ligand, obtained from inhibition or displacement. Consider `CN(CCc1c[nH]c2cccc(O)c12)CCC(F)(F)F` [III-6, 3-(2-(methyl (3,3,3-trifluoropropyl)amino)ethyl)-1H-indol-4-ol], for which, in series [1], the “HTR (per min)” value is on record as less than 1 per min; the “elicitation of HTR (in words)” value was “did not elicit a HTR; also recorded: did not elicit the 5-HT2A-dependent HTR”; the qualitative behavioral changes result was “reduced locomotion and “hiccup” responses; also recorded: “hiccup” like responses and caused hypolocomotion”. For the same molecule, the concentration at 10 min in series [2] (setting [7]) is 200 to 1300 nM. The concentration at 0.5 h in series [2] (setting [8]) was in the range of 120 to 420 nM. In addition, the concentration at 2 h in series [2] (setting [9]) was in the range of 3 to 20 nM. For the same molecule, the concentration at 10 min in series [2] (setting [10]) was 170 to 620 nM. Further, the concentration at 0.5 h in series [2] (setting [11]) was 72 to 180 nM. The concentration at 2 h in series [2] (setting [12]) lay within 2 to 16 nM. In series [3], the “5-HT2A receptor affinity (in words)” value is reported as “high affinities; also recorded: potent affinity”, the “competition binding curve shape” value is “multiple slopes”, the inhibition constant Ki turned out to be 12 nM and the “competition for [3H]LSD-labeled 5-HT2A receptors” value is “complete competition”. In addition, in series [4], the activation at 0.5 µM came out at 53.5% and the activation at 50 µM is greater than 50%. Besides, in series [4] (in vitro screening, II-15: both 500 nM and 50 μM), the “5-HT2A functional activity (in words)” value is given as “agonist activity; also recorded: behaved as an agonist”.

Consider `Oc1cccc2[nH]cc(CCN(CCC(F)(F)F)CCC(F)(F)F)c12` [III-3, 3-(2-(bis(3,3,3-trifluoropropyl)amino)ethyl)-1H-indol-4-ol], for which, in series [4], the activation at 0.5 µM turned out to be 29.2% and the activation at 50 µM was greater than 50%.

Take `COc1ccc2[nH]cc(CCN(C)C)c2c1` [Compound 5-MeO-DMT, 5-methoxy-N,N-dimethyltryptamine]: in series [5] (in vivo), the duration of action was 5 to 15 min. For the same molecule, in series [5] (oral), the “oral activity / oral bioavailability” value is “lacks oral bioavailability”.

One may read the EC50 as the midpoint of the concentration-response curve. In general, Emax refers to the maximal effect, on the per cent scale that the assay sets. As to `FC(F)CCN(CCc1c[nH]c2ccccc12)CCC(F)F` [II-2, N-(2-(1H-indol-3-yl)ethyl)-N-(3,3-difluoropropyl)-3,3-difluoropropan-1-amine], the activation at 0.5 µM in series [4] turned out to be 1.4%. Also, in series [6] (IP1 formation), the EC50 is 596 nM. The molecule also showed an Emax in series [6] (percent of control agonist response) of 79%.

In the case of `CN(CCc1c[nH]c2ccccc12)CCC(F)(F)F` [II-6, N-(2-(1H-indol-3-yl)ethyl)-3,3,3-trifluoro-N-methylpropan-1-amine], in series [1], the “HTR (per min)” value was less than 1 per min; the “elicitation of HTR (in words)” value is “did not elicit a HTR”; the qualitative behavioral changes entry was “reduced locomotion and “hiccup” responses”. For the same molecule, in series [2] (mice), the “brain penetration (in words)” value is “brain-penetrant”. For the same molecule, in series [2] (setting [7]), the concentration at 10 min fell in the range of 1550 to 12600 nM. In addition, the concentration at 0.5 h in series [2] (setting [8]) was in the range of 720 to 4710 nM. For the same molecule, the concentration at 2 h in series [2] (setting [9]) lay in the range of 21 to 1130 nM. In addition, in series [2] (setting [10]), the concentration at 10 min lay within 820 to 7760 nM. In series [2] (setting [11]), the concentration at 0.5 h was in the range of 390 to 3140 nM. Further, the concentration at 2 h in series [2] (setting [12]) fell in the range of 7 to 440 nM. Further, in series [3], the “5-HT2A receptor affinity (in words)” value is given as “high affinities”, the “competition binding curve shape” value is recorded as “multiple slopes”, the affinity corresponds to a Ki of 12 nM and the “competition for [3H]LSD-labeled 5-HT2A receptors” value is “complete competition”. For the same molecule, in series [4], the activation at 0.5 µM is -7.7 ± 11.6% and the activation at 50 µM was -3.1 ± 9.6%.

With `FC(F)(F)CCN(CCc1c[nH]c2ccccc12)CCC(F)(F)F` [II-3, N-(2-(1H-indol-3-yl)ethyl)-3,3,3-trifluoro-N-(3,3,3-trifluoropropyl) propan-1-amine], in series [4], the activation at 0.5 µM is -29.7% and the activation at 50 µM was greater than 50%.

`CN(C)CCc1c[nH]c2ccc(SC(F)(F)F)cc12` [Compound I-3, N,N-dimethyl-2-(5-((trifluoromethyl)thio)-1H-indol-3-yl) ethan-1-amine]: in series [4], the activation at 0.5 µM is -34.2% and the activation at 50 µM came out at 43.9%.

For the molecule `CN(CCc1c[nH]c2ccccc12)CC(F)F` [II-12, N-(2-(1H-indol-3-yl)ethyl)-2,2-difluoro-N-methylethan-1-amine], in series [4], the activation at 0.5 µM worked out at 19.9% and the activation at 50 µM was 30.3%.

On to `FC(F)(F)CN(CCc1c[nH]c2ccccc12)CC(F)(F)F` [II-10, N-(2-(1H-indol-3-yl)ethyl)-2,2,2-trifluoro-N-(2,2,2-trifluoroethyl) ethan-1-amine], for which the “competition for [3H]LSD-labeled 5-HT2A receptors” value in series [3] is reported as “only partial competition”.

Take `FC1(F)CCN(CCc2c[nH]c3ccccc23)CC1` [II-21, 3-(2-(4,4-difluoropiperidin-1-yl)ethyl)-1H-indole]: in series [4], the activation at 0.5 µM was 9.2% and the activation at 50 µM was -25.4%.

As to `CN(CCc1c[nH]c2cccc(O)c12)CC(F)F` [III-12, 3-(2-((2,2-difluoroethyl)(methyl)amino)ethyl)-1H-indol-4-ol], in series [4], the activation at 0.5 µM turned out to be 17.8% and the activation at 50 µM is greater than 50%.
